PubChem BioAssay AID248 (DTP/NCI, 2004)
Several values for one entry are separate records, joined by “and”; a condition that tells them apart may be missing. Equal entries are not always repeated. Inconclusive results and toxic doses are left out. No stated cut-off is given here; in the data, active means T/C of 150% or more; inactive means T/C below 125%.

Tested on: L1210 leukemia ip in BDF1 mice, survival T/C
Experiment: NCI In Vivo Anticancer Drug Screen. Data for tumor model L1210 Leukemia (intraperitoneal) in B6D2F1 (BDF1) mice
Settings: endpoint: mean survival time, higher = longer survival
Method in brief: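 Tumor was transplanted into mice, which were then dosed with test compound or vehicle alone. Survival was recorded for each group, and the treated figure was expressed relative to the control figure.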

[1] = dose: 100.0 mg/kg/injection, schedule: Q01DX001 (ip), vehicle: Klucel (hydroxypropylcellulose) (HPC)
[2] = dose: 100.0 mg/kg/injection, schedule: Q01DX009 (ip), vehicle: Klucel (hydroxypropylcellulose) (HPC)
[3] = dose: 100.0 mg/kg/injection, schedule: Q04DX002 (ip), vehicle: Klucel (hydroxypropylcellulose) (HPC)
[4] = dose: 100.0 mg/kg/injection, schedule: Q04DX003 (ip), vehicle: Klucel (hydroxypropylcellulose) (HPC)
[5] = dose: 200.0 mg/kg/injection, schedule: Q01DX001 (ip), vehicle: Klucel (hydroxypropylcellulose) (HPC)
[6] = dose: 200.0 mg/kg/injection, schedule: Q01DX009 (ip), vehicle: Klucel (hydroxypropylcellulose) (HPC)
[7] = dose: 200.0 mg/kg/injection, schedule: Q04DX002 (ip), vehicle: Klucel (hydroxypropylcellulose) (HPC)
[8] = dose: 200.0 mg/kg/injection, schedule: Q04DX003 (ip), vehicle: Klucel (hydroxypropylcellulose) (HPC)
[9] = dose: 400.0 mg/kg/injection, schedule: Q01DX001 (ip), vehicle: Klucel (hydroxypropylcellulose) (HPC)
[10] = dose: 400.0 mg/kg/injection, schedule: Q04DX003 (ip), vehicle: Klucel (hydroxypropylcellulose) (HPC)
[11] = dose: 100.0 mg/kg/injection, schedule: Q04DX002 (ip), vehicle: saline
[12] = dose: 100.0 mg/kg/injection, schedule: Q04DX003 (ip), vehicle: saline
[13] = dose: 200.0 mg/kg/injection, schedule: Q04DX002 (ip), vehicle: saline
[14] = dose: 100.0 mg/kg/injection, schedule: Q04DX002 (ip), vehicle: saline with Tween-80
[15] = dose: 400.0 mg/kg/injection, schedule: Q01DX009 (ip), vehicle: Klucel (hydroxypropylcellulose) (HPC)
[16] = dose: 100.0 mg/kg/injection, schedule: Q01DX001 (ip), vehicle: saline
[17] = dose: 50.0 mg/kg/injection, schedule: Q01DX009 (ip), vehicle: saline with Tween-80
[18] = dose: 100.0 mg/kg/injection, schedule: Q01DX009 (ip), vehicle: saline with Tween-80
[19] = dose: 200.0 mg/kg/injection, schedule: Q01DX009 (ip), vehicle: saline with Tween-80
[20] = dose: 25.0 mg/kg/injection, schedule: Q01DX009 (ip), vehicle: Klucel (hydroxypropylcellulose) (HPC)
[21] = dose: 50.0 mg/kg/injection, schedule: Q01DX009 (ip), vehicle: Klucel (hydroxypropylcellulose) (HPC)

Measured: T/C

CCOC(=N)Cc1cc(OC)c(OC)c(OC)c1
inactive: dose: 100.0 mg/kg/injection, schedule: Q04DX003 (ip), vehicle: saline sonified 100 % of control | dose: 200.0 mg/kg/injection, schedule: Q04DX003 (ip), vehicle: saline sonified 98 % of control | dose: 400.0 mg/kg/injection, schedule: Q04DX003 (ip), vehicle: saline sonified 102 % of control

O=C1c2ccccc2C(=O)N1c1ccc(CBr)cc1
inactive: [1] 98 % of control | [2] 92 % of control and 94 % of control | [3] 106 % of control and 89 % of control | [4] 98 % of control | [5] 94 % of control | [6] 89 % of control | [7] 97 % of control and 102 % of control | [8] 90 % of control | [9] 89 % of control | dose: 400.0 mg/kg/injection, schedule: Q04DX002 (ip), vehicle: Klucel (hydroxypropylcellulose) (HPC) 92 % of control and 115 % of control | [10] 102 % of control

O=C1OC(=O)C(Br)=C1Br
inactive: dose: 25.0 mg/kg/injection, schedule: Q04DX002 (ip), vehicle: saline 101 % of control | dose: 50.0 mg/kg/injection, schedule: Q01DX009 (ip), vehicle: saline 94 % of control | dose: 50.0 mg/kg/injection, schedule: Q04DX002 (ip), vehicle: saline 97 % of control | dose: 100.0 mg/kg/injection, schedule: Q01DX009 (ip), vehicle: saline 91 % of control | [11] 97 % of control | [12] 95 % of control | dose: 200.0 mg/kg/injection, schedule: Q01DX009 (ip), vehicle: saline 107 % of control | [13] 93 % of control and 103 % of control | dose: 200.0 mg/kg/injection, schedule: Q04DX003 (ip), vehicle: saline 98 % of control

Cc1cc2ccccc2cc1C
inactive: dose: 25.0 mg/kg/injection, schedule: Q04DX002 (ip), vehicle: other 102 % of control | dose: 25.0 mg/kg/injection, schedule: Q04DX002 (ip), vehicle: saline with Tween-80 119 % of control | dose: 50.0 mg/kg/injection, schedule: Q04DX002 (ip), vehicle: saline with Tween-80 101 % of control | dose: 100.0 mg/kg/injection, schedule: Q04DX002 (ip), vehicle: other 94 % of control | [14] 111 % of control

O=C(NCN1C(=O)c2ccccc2C1=O)NCN1C(=O)c2ccccc2C1=O
inactive: [2] 95 % of control | [6] 102 % of control | [15] 92 % of control

O=C(COCC(=O)N/N=C/c1cccc([N+](=O)[O-])c1)N/N=C/c1cccc([N+](=O)[O-])c1
inactive: [2] 92 % of control | [6] 95 % of control | [15] 106 % of control

OC1C2CCN(CC2)C1CN1CC=C(c2ccccc2)CC1 (configuration not stated)
inactive: dose: 25.0 mg/kg/injection, schedule: Q04DX003 (ip), vehicle: saline 104 % of control | dose: 50.0 mg/kg/injection, schedule: Q04DX003 (ip), vehicle: saline 101 % of control | [12] 98 % of control

CC(C)=CCCC(C)CCOC(N)=O (configuration not stated)
inactive: [14] 104 % of control | dose: 200.0 mg/kg/injection, schedule: Q04DX002 (ip), vehicle: saline with Tween-80 111 % of control

Cc1cccc(NC(=O)CCc2ccc(Cl)cc2)n1
inactive: [16] 95 % of control

Cc1ccc2nc(-c3cccc([N+](=O)[O-])c3)oc(=O)c2c1
inactive: dose: 100.0 mg/kg/injection, schedule: Q04DX003 (ip), vehicle: saline with Tween-80 87 % of control | dose: 200.0 mg/kg/injection, schedule: Q04DX003 (ip), vehicle: saline with Tween-80 97 % of control | dose: 400.0 mg/kg/injection, schedule: Q04DX003 (ip), vehicle: saline with Tween-80 97 % of control

O=C(Nc1ccc(Cl)cc1)Oc1ccc(Br)cc1Br
inactive: [2] 100 % of control | [6] 96 % of control | [15] 104 % of control

Cn1nccc2c(=O)n(C)c(=O)nc1-2
inactive: [3] 97 % of control | [7] 95 % of control

COC(=O)CCC(NC(=O)c1cccc(N(C)C=O)c1)C(=O)OC (configuration not stated)
inactive: [17] 97 % of control | [18] 95 % of control | [19] 105 % of control

SC(S)(Cc1ccccc1)Cc1ccccc1
inactive: [11] 100 % of control | [13] 100 % of control | dose: 400.0 mg/kg/injection, schedule: Q04DX002 (ip), vehicle: saline 94 % of control

CS(=O)(=O)OCCN(CCOS(C)(=O)=O)c1ccc(C=Nc2ccc(-c3csc(-c4ccc(Br)cc4)n3)cc2)cc1
inactive: [20] 124 % of control | [21] 114 % of control

CC(=O)NC(=O)NC(=O)CC#N
inactive: [1] 90 % of control | [5] 88 % of control | [9] 93 % of control

Cc1ccc(C(O)CCN2CCOCC2)c(C)c1 (configuration not stated)
inactive: [16] 102 % of control | dose: 200.0 mg/kg/injection, schedule: Q01DX001 (ip), vehicle: saline 104 % of control

Cc1cccc(C(=O)Cl)c1[N+](=O)[O-]
inactive: dose: 50.0 mg/kg/injection, schedule: Q01DX001 (ip), vehicle: carboxymethylcellulose (CMC) 95 % of control | dose: 100.0 mg/kg/injection, schedule: Q01DX001 (ip), vehicle: carboxymethylcellulose (CMC) 93 % of control | dose: 200.0 mg/kg/injection, schedule: Q01DX001 (ip), vehicle: carboxymethylcellulose (CMC) 90 % of control | dose: 400.0 mg/kg/injection, schedule: Q01DX001 (ip), vehicle: carboxymethylcellulose (CMC) 95 % of control

CCN(CC)CCNc1nc(N)nc2c1nnn2CC
inactive: dose: 100.0 mg/kg/injection, schedule: Q04DX003 (ip), vehicle: gum acacia 93 % of control | dose: 200.0 mg/kg/injection, schedule: Q04DX003 (ip), vehicle: gum acacia 91 % of control

CN(C)C(=S)SC1OC(CO)C(SC(=S)N(C)C)OC1CO (configuration not stated)
inactive: [17] 97 % of control | [18] 104 % of control | [19] 97 % of control

COc1ccc2c(c1Oc1ccc([N+](=O)[O-])cc1[N+](=O)[O-])C13CCN(C)C(C2)C1CCC1(C3)OCCO1 (configuration not stated)
inactive: dose: 12.5 mg/kg/injection, schedule: Q01DX009 (ip), vehicle: Klucel (hydroxypropylcellulose) (HPC) 98 % of control | [20] 121 % of control | [21] 101 % of control | [2] 102 % of control | [6] 102 % of control | [15] 88 % of control

CNc1ccc(Cl)cc1C
inactive: dose: 100.0 mg/kg/injection, schedule: Q04DX002 (sc), vehicle: olive oil, sesame oil, peanut oil 103 % of control | dose: 200.0 mg/kg/injection, schedule: Q04DX002 (sc), vehicle: olive oil, sesame oil, peanut oil 110 % of control | dose: 400.0 mg/kg/injection, schedule: Q04DX002 (sc), vehicle: olive oil, sesame oil, peanut oil 100 % of control

CC1(C)Oc2nc(N)nc(N)c2C1c1ccc(Cl)cc1 (configuration not stated)
inactive: [4] 106 % of control | [8] 97 % of control | [10] 103 % of control
